Experimental findings from doi:10.1101/2021.05.10.443505v2 (biorxiv, 2021) are described below.

The assay addresses T1, human ID2 protein (Homo sapiens, UniProt Q02363).
T1 sequence (Q02363 1-134): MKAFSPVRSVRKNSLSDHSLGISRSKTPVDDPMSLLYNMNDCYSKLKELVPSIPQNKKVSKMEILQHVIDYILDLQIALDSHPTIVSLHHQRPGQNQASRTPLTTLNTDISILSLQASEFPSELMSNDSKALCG
In words: SPR. It counts as binding.

The molecule `O=C(CC1(O)C(=O)N(Cc2cccc(Cl)c2)c2ccccc21)c1ccccn1` (stereo not shown) [AK-778-XXMU] had a Kd of 129 nM.

What is called Kd is the free concentration of one partner at which half of the binding sites on the other are occupied at equilibrium, for simple one-to-one binding. Higher therefore signals weaker binding.
